pIC50: −log10 of the molar value.
What was measured:
[1] = molecular target: T1, Orai1/STIM1 (Homo sapiens, UniProt Q96D31); assay: Fluorescence-based assay of store-operated calcium entry in Orai1/STIM1 stable cells; format: cell-based; parameters: key to Orai1/STIM1 (IC50, μmol): A, IC50 < 0.6 μM; B, IC50 = 0.6-1.2 μM; C, IC50 > 1.2 μM; — no fit; conditions: HEK-293 cells stably expressing human STIM1 and Orai1, inhibition of Peak-Basal fluorescence signal after calcium addition; for pIC50: read-out: Orai1/STIM1 (IC50, μmol)
T1 construct: c-myc (C); expressed in transfected cells; host or cells: HEK-293 cells stably expressing recombinant human STIM1 and Orai1
T1 sequence (Q96D31 whole entry): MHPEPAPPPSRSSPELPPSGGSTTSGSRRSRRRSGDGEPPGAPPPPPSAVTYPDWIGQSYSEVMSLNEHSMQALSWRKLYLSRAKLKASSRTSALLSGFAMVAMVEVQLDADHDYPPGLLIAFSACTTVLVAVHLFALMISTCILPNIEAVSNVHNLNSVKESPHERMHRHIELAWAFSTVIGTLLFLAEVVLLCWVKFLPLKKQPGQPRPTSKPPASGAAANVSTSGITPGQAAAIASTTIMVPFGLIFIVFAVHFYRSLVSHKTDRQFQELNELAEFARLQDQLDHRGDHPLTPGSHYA
Excerpt: (§1) Fluorescence-based assays are used for screening the compounds described herein, such as compounds of Formulas (I), (IA), (II), (IIA), (III), (IIIA), (IV), (IVA), (V), (VA), (VI), (VIA), (VII), (VIIA), (VIII), (VIIIA), (IX), (IXA), (X), (XI), (XIA), (XII), or (XIIA) which modulate intracellular calcium.
A. Fluorescence-Based Assay of Store-Operated Calcium Entry in Orai1/STIM1 Stable Cells.
Cells stably expressing recombinant human STIM1 and Orai1 are generated by transfecting a human Orai1 expression plasmid (pcDNA3.1-Orai1-cmyc) into HEK-293 cells stably overexpressing human STIM1 (Roos et al. 2005 JCB 169(3): 435-445). Colonies of cells stably expressing both STIM1 and Orai1 proteins are selected and then subcloned by limiting dilution. Cells were cultured at 37° C./6% CO2 in complete medium with 10% FBS and appropriate selection markers.
The day prior to performing the assay Orai1/STIM1 stable cells are plated in 50 μL of complete medium at 90-95% confluence in a 384 well plate. Cells are grown at 37° C./6% CO2 overnight. On the day of the assay, 1.5 μM fluo-4-AM (Invitrogen) in complete medium is added to the cells, which are then incubated for 1 hour at RT. Cells are washed once in Ca^2+-free HBSS (Hank's buffered saline solution) and 35 μl of Ca^2+-free HBSS is added to each well. Test compounds are added to wells in a 10 μL Ca^2+-free HBSS solution, prepared at 4.5× the desired final concentration, and incubated for 30 minutes at RT. The initial baseline fluorescence signal is then measured with a FLIPR^384 (Molecular Devices) plate reader. Calcium entry is initiated by adding 5 μl of 10×CaCl2 (10 mM) in HBSS, and changes in cellular fluorescence are measured with the FLIPR^384 plate reader. In each well, the magnitude of the fluorescence signal as a result of calcium entry into the cell is determined by calculating the difference between the peak fluorescence signal measured after calcium addition and the initial baseline fluorescence signal (designated Peak-Basal). IC50 values are typically calculated as the concentration that inhibited 50% of the Peak-Basal signal.

[2] = system: RBL-2H3 cells; assay: Fluorescence-based assay of store-operated calcium entry in RBL-2H3 cells; format: cell-based, rat; conditions: Rattus norvegicus, thapsigargin, inhibition of Upslope of fluorescence after calcium addition, read-out: RBL-2H3 (IC50, μmol)
Method: as §1
B. Fluorescence-Based Assay of Store-Operated Calcium Entry in RBL-2H3 Cells.
RBL-2H3 cells are obtained from ATCC and maintained in complete medium with 10% FBS at 37° C./6% CO2.
The day prior to performing the assay, RBL-2H3 cells are plated in 50 μL of complete medium in a 384 well plate. Cells are grown at 37° C./6% CO2 overnight and grow to 50-60% confluence by the next day. On the assay day, 1.5 µM Fluo-4-AM dye (Invitrogen) in complete medium is added and incubated for 1 hour at RT. Cells are washed twice in Ca^2+-free HBSS buffer and 35 μL Ca^2+-free HBSS buffer is added to each well. 10 μL of a test compound prepared in a Ca^2+-free HBSS solution at 4.5× of the desired concentration is added to a well and incubated for 5 minutes at RT. 10 μL of thapsigargin prepared in a Ca^2+-free HBSS solution at 5.5× of the desired concentration (5.5 uM) is added to each well and incubated for an additional 25 minutes. The initial baseline fluorescence signal is measured with a FLIPR^384 (Molecular Devices) plate reader. 5 μL of 12× calcium in HBSS (12 mM) is added and changes in cellular fluorescence are measured with the FLIPR^384 plate reader. In each well, the change in the fluorescent signal as a function of time due to calcium entry into the cell is determined by calculating the difference between the fluorescent signal measured 7 seconds after calcium addition and the initial baseline fluorescence signal at time zero (t=0). This parameter is designated Upslope. The IC50 value is calculated as the concentration at which 50% of the Upslope is inhibited.

Row | SMILES | pIC50 [1] | pIC50 [2] | Orai1/STIM1 (IC50, μmol) [1]
1 | Cc1cc2c(cc1-c1cnc(NCc3c(F)cc(F)cc3F)cn1)OC(F)(F)O2 [Compound 23] | 5.92 to 6.22 | > 6.22 | 
2 | Cc1ccc(F)cc1CNc1ccc(-c2cc3c(cc2C)CCC3)cn1 [Compound 18] |  | > 6.22 | —
3 | Cc1cc2c(cc1-c1ccc(NCc3ccccc3F)nc1)OC(F)(F)O2 [Compound 21] | > 6.22 | > 6.22 | 
4 | FC1(F)Oc2cc(Cl)c(-c3ccc(NCc4ccccc4C(F)(F)F)nc3)cc2O1 [Compound 12, 5-(6-chloro-2,2-difluorobenzo[d][1,3]dioxol-5-yl)-N-(2-(trifluoromethyl)benzyl)pyridin-2-amine] |  | > 6.22 | —
5 | COc1ccccc1CNc1ccc(-c2cc3c(cc2Cl)OC(F)(F)O3)cn1 [Compound 15] | < 5.92 | > 6.22 | 
6 | Fc1cccc(F)c1CNc1ncc(Oc2ccccc2C(F)(F)F)cn1 [Compound 126, N-(2,6-difluorobenzyl)-5-(2-(trifluoromethyl)phenoxy)pyrimidin-2-amine] | > 6.22 | > 6.22 | 
7 | Fc1cccc(CNc2ccc(-c3cc4c(cc3Cl)OC(F)(F)O4)cn2)c1 [Compound 16] | 5.92 to 6.22 | > 6.22 | 
8 | Cn1nc(C(F)(F)F)cc1-c1ccc(NC(=O)c2ccccc2F)nc1 [Compound 72, (2-fluorophenyl)-N-{5-[1-methyl-3-(trifluoromethyl)pyrazol-5-yl](2-pyridyl)}carboxamide] | > 6.22 | > 6.22 | 
9 | Fc1cc(F)c(CNc2ccc(-n3nc(C(F)(F)F)cc3C(F)(F)F)cn2)c(F)c1 [Compound 102, 5-(3,5-bis(trifluoromethyl)-1H-pyrazol-1-yl)-N-(2,4,6-trifluorobenzyl)pyridin-2-amine] | > 6.22 | > 6.22 | 
10 | Cn1nc(C(F)(F)F)cc1-c1ccc(NC(=O)c2c(F)cccc2F)nc1 [Compound 74, (2,6-difluorophenyl)-N-{5-[1-methyl-3-(trifluoromethyl)pyrazol-5-yl](2-pyridyl)}carboxamide] | 5.92 to 6.22 | > 6.22 | 
11 | Cc1cc(Cl)ncc1-c1cnc(NCc2c(F)cc(Cl)cc2F)nc1 [Compound 129, N-(4-chloro-2,6-difluorobenzyl)-5-(6-chloro-4-methylpyridin-3-yl)pyrimidin-2-amine] | > 6.22 | > 6.22 | 
12 | Cc1cc2c(cc1-c1ccc(NCc3c(F)cccc3F)nc1)CCC2 [Compound 17] | 5.92 to 6.22 | > 6.22 | 
13 | Cc1ccccc1CNc1ccc(-c2cc3c(cc2C)OC(F)(F)O3)cn1 [Compound 19] | > 6.22 | > 6.22 | 
14 | Fc1cccc(F)c1CNc1ccc(-c2cc3c(cc2Cl)OCCO3)cn1 [Compound 42, 5-(7-chloro-2,3-dihydrobenzo[b][1,4]dioxin-6-yl)-N-(2,6-difluorobenzyl)pyridin-2-amine] | < 5.92 | > 6.22 | 
15 | Cn1nc(C(F)(F)F)cc1-c1ccc(NCc2ccccc2F)nc1N [Compound 143, N^2-(2-fluorobenzyl)-5-(1-methyl-3-(trifluoromethyl)-1H-pyrazol-5-yl)pyridine-2,6-diamine] | > 6.22 | > 6.22 | 
16 | Cc1cc2c(cc1-c1ccc(NCc3ccccc3Cl)nc1)OC(F)(F)O2 [Compound 20] | < 5.92 | > 6.22 | 
17 | Cc1cc2c(cc1-c1ccc(NCc3c(F)cccc3F)nc1)OC(F)(F)O2 [Compound 4, 5-(2,2-difluoro-6-methylbenzo[d][1,3]dioxol-5-yl)-N-(2,6-difluorobenzyl)pyridin-2-amine] | 5.92 to 6.22 | > 6.22 | 
18 | Fc1cc(F)c(CNc2ccc(Oc3ccccc3C(F)(F)F)cn2)c(F)c1 [Compound 134] | > 6.22 | > 6.22 | 

More lines, now with the values ahead:

Row | pIC50 [1] | pIC50 [2] | Orai1/STIM1 (IC50, μmol) [1] | SMILES
19 | 5.92 to 6.22 | > 6.22 |  | COc1cc(F)c(CNc2ccc(-n3nc(C(F)(F)F)cc3C)cn2)c(F)c1 [Compound 120, N-(2,6-difluoro-4-methoxybenzyl)-5-(5-methyl-3-(trifluoromethyl)-1H-pyrazol-1-yl)pyridin-2-amine]
20 | > 6.22 | > 6.22 |  | Cn1nc(C(F)(F)F)cc1-c1ccc(NCc2c(F)cc(F)cc2F)nc1 [Compound 82, 5-(1-methyl-3-(trifluoromethyl)-1H-pyrazol-5-yl)-N-(2,4,6-trifluorobenzyl)pyridin-2-amine]
21 | > 6.22 | > 6.22 |  | Cc1cccc(F)c1CNc1ccc(-c2cc(C(F)(F)F)nn2C)cn1 [Compound 86, N-(2-fluoro-6-methylbenzyl)-5-(1-methyl-3-(trifluoromethyl)-1H-pyrazol-5-yl)pyridin-2-amine]
22 | < 5.92 | 5.92 to 6.22 |  | Cn1nc(C(F)(F)F)cc1-c1cnc(NCc2c(F)cccc2F)cc1F [Compound 76, N-(2,6-difluorobenzyl)-4-fluoro-5-(1-methyl-3-(trifluoromethyl)-1H-pyrazol-5-yl)pyridin-2-amine]
23 | 5.92 to 6.22 | > 6.22 |  | Cc1cc(C(F)(F)F)nn1-c1ccc(NCc2c(F)cncc2F)nc1 [Compound 124, N-((3,5-difluoropyridin-4-yl)methyl)-5-(5-methyl-3-(trifluoromethyl)-1H-pyrazol-1-yl)pyridin-2-amine]
24 | > 6.22 | > 6.22 |  | Cn1nc(C(F)(F)F)cc1-c1ccc(NCc2c(F)cncc2F)nc1 [Compound 84, N-((3,5-difluoropyridin-4-yl)methyl)-5-(1-methyl-3-(trifluoromethyl)-1H-pyrazol-5-yl)pyridin-2-amine]
25 |  | < 5.92 | — | Cc1nc(C(F)(F)F)cn1-c1ccc(NCc2c(F)cncc2F)nc1 [Compound 110, N-((3,5-difluoropyridin-4-yl)methyl)-5-(2-methyl-4-(trifluoromethyl)-1H-imidazol-1-yl)pyridin-2-amine]
26 |  | > 6.22 | — | Cc1c(F)cccc1CNc1ccc(-n2nc(C(F)(F)F)cc2C)cn1 [Compound 122, N-(3-fluoro-2-methylbenzyl)-5-(5-methyl-3-(trifluoromethyl)-1H-pyrazol-1-yl)pyridin-2-amine]
27 | > 6.22 | > 6.22 |  | Fc1cccc(F)c1CNc1ccc(Oc2ccccc2C(F)(F)F)cn1 [Compound 135]
28 | > 6.22 | > 6.22 |  | Cc1cc(C(F)(F)F)nn1-c1ccc(NCc2c(F)cc(F)cc2F)nc1 [Compound 118, 5-(5-methyl-3-(trifluoromethyl)-1H-pyrazol-1-yl)-N-(2,4,6-trifluorobenzyl)pyridin-2-amine]
29 | > 6.22 | > 6.22 |  | Cn1nc(C(F)(F)F)cc1-c1ccc(NCc2c(F)ccc(F)c2F)nc1 [Compound 78, 5-(1-methyl-3-(trifluoromethyl)-1H-pyrazol-5-yl)-N-(2,3,6-trifluorobenzyl)pyridin-2-amine]
30 | > 6.22 | > 6.22 |  | Cc1nc(C(F)(F)F)cn1-c1ccc(NCc2c(F)cccc2F)nc1 [Compound 106, N-(2,6-difluorobenzyl)-5-(2-methyl-4-(trifluoromethyl)-1H-imidazol-1-yl)pyridin-2-amine]

— patent US10106529B2, “Compounds that modulate intracellular calcium” (CalciMedica, Inc., priority 2011, dated 2018)
